Results published in publication PMC8342319, “Predicting blood-to-plasma concentration ratios of drugs from chemical structures and volumes of distribution in humans” (Molecular Diversity, 2021).
Like-named read-outs stand apart in the source and are kept apart here.

Key:
[1] = test system: plasma protein; settings: cited from earlier work; for fp_Human (free fraction in plasma): human, collected value, median if multiple values were reported, ref: Table S1
[2] = human, cited from earlier work
[3] = human
[4] = cited from earlier work
[5] = intravenous, median if multiple values were reported, ref numbers in Table S1
[6] = human, intravenous, median if multiple values were reported, ref numbers in Table S1
[7] = intravenous, median if multiple values reported, Reference of Table S1

Structure (SMILES) | in vivo Vd_(L/kg)_Human [2, 5] | in vivo CL_(L/hr/kg)_Human [4, 6] | also measured
CC(=O)Nc1ccc(O)cc1 [Acetaminophen] | 1.000 L/kg |  | fp_Human (free fraction in plasma) [1]: 0.710
CN(C)Cc1nnc2n1-c1ccc(Cl)cc1C(c1ccccc1)=NC2 [Adinazolam] |  | 0.372 L/h/kg | in vivo MRT_(hr)_Human [3]: 2.634 h; in vivo Vd_(L/kg)_Human ([2]; in vivo, iv): 0.980 L/kg
Oc1ncnc2[nH]ncc12 [Allopurinol] | 0.580 L/kg |  | 
Cc1nnc2n1-c1ccc(Cl)cc1C(c1ccccc1)=NC2 [Alprazolam] | 0.800 L/kg | 0.044 L/h/kg | 
C=CCc1ccccc1OCC(O)CNC(C)C (stereo not shown) [Alprenolol] | 3.200 L/kg | 0.900 L/h/kg | 
CCCCc1oc2ccccc2c1C(=O)c1cc(I)c(OCCN(CC)CC)c(I)c1 [Amiodarone] |  | 0.114 L/h/kg | 
CN(C)CCC=C1c2ccccc2CCc2ccccc21 [Amitriptyline] | 8.700 L/kg | 0.593 L/h/kg | 
CC1(C)S[C@@H]2[C@H](NC(=O)[C@H](N)c3ccc(O)cc3)C(=O)N2[C@H]1C(=O)O [Amoxicillin] | 0.250 L/kg | 0.198 L/h/kg | 
C[C@@H](O[C@H]1OCCN(Cc2n[nH]c(=O)[nH]2)[C@H]1c1ccc(F)cc1)c1cc(C(F)(F)F)cc(C(F)(F)F)c1 [Aprepitant] | 0.940 L/kg |  | 
CC(C)NCC(O)COc1ccc(CC(N)=O)cc1 (stereo not shown) [Atenolol] |  | 0.150 L/h/kg | 
C[C@H]1C[C@H]2[C@@H]3CCC4=CC(=O)C=C[C@]4(C)[C@@]3(F)[C@@H](O)C[C@]2(C)[C@@]1(O)C(=O)CO [Betamethasone] |  | 0.168 L/h/kg | 
OC(CCN1CCCCC1)(c1ccccc1)C1CC2C=CC1C2 (stereo not shown) [Biperiden] | 9.100 L/kg |  | in vivo MRT_(hr)_Human [3]: 12.639 h
CC(C)NCC(O)COc1ccc(COCCOC(C)C)cc1 (stereo not shown) [Bisoprolol] | 2.400 L/kg | 0.222 L/h/kg | fp_Human (free fraction in plasma) [1]: 0.830
CCCC1O[C@@H]2C[C@H]3[C@@H]4CCC5=CC(=O)C=C[C@]5(C)[C@H]4[C@@H](O)C[C@]3(C)[C@]2(C(=O)CO)O1 (stereo partly shown) [Budesonide] | 3.900 L/kg | 1.200 L/h/kg | 
COc1ccccc1OCCNCC(O)COc1cccc2[nH]c3ccccc3c12 (stereo not shown) [Carvedilol] | 1.300 L/kg | 0.495 L/h/kg | 
C=CC1=C(C(=O)O)N2C(=O)[C@@H](NC(=O)/C(=N\OCC(=O)O)c3csc(N)n3)[C@H]2SC1 [Cefixime] | 0.240 L/kg | 0.060 L/h/kg | 
CCC[C@@H]1C[C@@H](C(=O)N[C@@H]([C@H]2O[C@H](SC)[C@H](O)[C@@H](O)[C@H]2O)[C@H](C)Cl)N(C)C1 [Clindamycin] |  | 0.270 L/h/kg | 
CN1CCN(C2=Nc3cc(Cl)ccc3Nc3ccccc32)CC1 [Clozapine] | 1.600 L/kg |  | in vivo MRT_(hr)_Human [3]: 10.667 h
CNCCCN1c2ccccc2CCc2ccccc21 [Desipramine] | 15.000 L/kg |  | in vivo MRT_(hr)_Human [3]: 22.727 h
C[C@@H]1C[C@H]2[C@@H]3CCC4=CC(=O)C=C[C@]4(C)[C@@]3(F)[C@@H](O)C[C@]2(C)[C@@]1(O)C(=O)CO [Dexamethasone] |  | 0.198 L/h/kg | 

Structure (SMILES) | in vivo Vd_(L/kg)_Human [2, 5] | in vivo CL_(L/hr/kg)_Human [4, 6] | also measured
CN1C(=O)CN=C(c2ccccc2)c2cc(Cl)ccc21 [Diazepam] |  | 0.023 L/h/kg | 
O=c1[nH]cnc2c1ncn2[C@H]1CC[C@@H](CO)O1 [Didanosine] |  | 0.660 L/h/kg | in vivo MRT_(hr)_Human [3]: 1.197 h
COc1cc2nc(N3CCN(C(=O)C4COc5ccccc5O4)CC3)nc(N)c2cc1OC (stereo not shown) [Doxazosin] | 1.300 L/kg |  | in vivo MRT_(hr)_Human [3]: 13.542 h
CCN(CC)C(=O)/C(C#N)=C/c1cc(O)c(O)c([N+](=O)[O-])c1 [Entacapone] | 0.270 L/kg | 0.720 L/h/kg | 
CC[C@H]1OC(=O)[C@H](C)[C@@H](O[C@H]2C[C@@](C)(OC)[C@@H](O)[C@H](C)O2)[C@H](C)[C@@H](O[C@@H]2O[C@H](C)C[C@H](N(C)C)[C@H]2O)[C@](C)(O)C[C@@H](C)C(=O)[C@H](C)[C@@H](O)[C@]1(C)O [Erythromycin] |  |  | fp_Human (free fraction in plasma) [1]: 0.220
CC(C)(C)NC(=O)[C@H]1CC[C@H]2[C@@H]3CC[C@H]4NC(=O)C=C[C@]4(C)[C@H]3CC[C@]12C [Finasteride] | 1.100 L/kg |  | in vivo MRT_(hr)_Human [3]: 7.639 h
O=C(NCC1CCCCN1)c1cc(OCC(F)(F)F)ccc1OCC(F)(F)F (stereo not shown) [Flecainide] | 6.100 L/kg |  | in vivo MRT_(hr)_Human [3]: 20.748 h
CCOC(=O)c1ncn2c1CN(C)C(=O)c1cc(F)ccc1-2 [Flumazenil] |  | 0.960 L/h/kg | 
CC1(C)O[C@@H]2C[C@H]3[C@@H]4C[C@H](F)C5=CC(=O)C=C[C@]5(C)[C@H]4[C@@H](O)C[C@]3(C)[C@]2(C(=O)CO)O1 [Flunisolide] |  | 0.720 L/h/kg | in vivo MRT_(hr)_Human [3]: 2.500 h
O=c1[nH]cc(F)c(=O)[nH]1 [Fluorouracil] |  |  | fp_Human (free fraction in plasma) [1]: 0.770
CC(C)n1c(/C=C/C(O)CC(O)CC(=O)O)c(-c2ccc(F)cc2)c2ccccc21 (stereo not shown) [Fluvastatin] | 0.420 L/kg |  | in vivo MRT_(hr)_Human [3]: 0.438 h
O=C(O)P(=O)(O)O [Foscarnet] | 0.500 L/kg | 0.126 L/h/kg | 
NS(=O)(=O)c1cc(C(=O)O)c(NCc2ccco2)cc1Cl [Furosemide] |  | 0.096 L/h/kg | 
O=C(/C=C/c1c(C(=O)O)[nH]c2cc(Cl)cc(Cl)c12)Nc1ccccc1 [Gavestinel] |  |  | fp_Human [1]: 0.002
CCC1=C(C)CN(C(=O)NCCc2ccc(S(=O)(=O)NC(=O)N[C@H]3CC[C@H](C)CC3)cc2)C1=O [Glimepiride] | 0.190 L/kg | 0.034 L/h/kg | fp_Human (free fraction in plasma) [1]: 0.028
CC#CCC(C)[C@H](O)/C=C/[C@@H]1[C@H]2C/C(=C/CCCC(=O)O)C[C@H]2C[C@H]1O (stereo partly shown) [Iloprost] | 0.385 L/kg | 0.960 L/h/kg | fp_Human (free fraction in plasma) [1]: 0.400
CN(C)CCCN1c2ccccc2CCc2ccccc21 [Imipramine] | 12.000 L/kg |  | 
CCC(C)n1ncn(-c2ccc(N3CCN(c4ccc(OCC5COC(Cn6cncn6)(c6ccc(Cl)cc6Cl)O5)cc4)CC3)cc2)c1=O (stereo not shown) [Itraconazole] | 7.400 L/kg | 0.306 L/h/kg | 
CC(CCc1ccccc1)NCC(O)c1ccc(O)c(C(N)=O)c1 (stereo not shown) [Labetalol] |  | 1.380 L/h/kg | fp_Human (free fraction in plasma) [1]: 0.500
Cc1c(OCC(F)(F)F)ccnc1C[S+]([O-])c1nc2ccccc2[nH]1 (stereo not shown) [Lansoprazole] | 0.280 L/kg | 0.319 L/h/kg | 

Structure (SMILES) | in vivo Vd_(L/kg)_Human [2, 5] | in vivo CL_(L/hr/kg)_Human [4, 6] | also measured
CCN(CC)CC(=O)Nc1c(C)cccc1C [Lidocaine] |  | 0.756 L/h/kg | 
CC[C@H](C)C(=O)O[C@H]1C[C@@H](C)C=C2C=C[C@H](C)[C@H](CC[C@@H]3C[C@@H](O)CC(=O)O3)[C@H]21 [Lovastatin] | 0.870 L/kg | 0.432 L/h/kg | 
CN(c1nc2ccccc2s1)C1CCN(C[C@H](O)COc2ccc(F)c(F)c2)CC1 [Lubeluzole] |  | 0.102 L/h/kg | fp_Human (free fraction in plasma) [1]: 0.003
CN1CC[C@]23c4c5ccc(O)c4O[C@H]2[C@@H](O)C=C[C@H]3[C@H]1C5 [Morphine] |  | 1.500 L/h/kg | 
C=CCN1CC[C@]23c4c5ccc(O)c4O[C@H]2C(=O)CC[C@@]3(O)[C@H]1C5 [Naloxone] | 1.700 L/kg |  | 
COc1ccc2cc([C@H](C)C(=O)O)ccc2c1 [Naproxen] |  | 0.004 L/h/kg | 
Cc1ccnc2c1NC(=O)c1cccnc1N2C1CC1 [Nevirapine] | 1.300 L/kg | 0.018 L/h/kg | 
COCCOC(=O)C1=C(C)NC(C)=C(C(=O)OC(C)C)C1c1cccc([N+](=O)[O-])c1 (stereo not shown) [Nimodipine] | 1.000 L/kg |  | in vivo MRT_(hr)_Human [3]: 1.111 h
COc1ccc2[nH]c([S+]([O-])Cc3ncc(C)c(OC)c3C)nc2c1 (stereo not shown) [Omeprazole] | 0.240 L/kg | 0.504 L/h/kg | 
O=C1Nc2ccc(Cl)cc2C(c2ccccc2)=NC1O (stereo not shown) [Oxazepam] |  |  | in vivo CL_(L/hr/kg)_Human ([4]; in vivo, iv): 0.066 L/h/kg
COc1ccc2c3c1O[C@H]1C(=O)CC[C@@]4(O)[C@@H](C2)N(C)CC[C@]314 [Oxycodone] |  | 0.366 L/h/kg | fp_Human (free fraction in plasma) [1]: 0.550
CCN1CCN(C(=O)N[C@@H](C(=O)N[C@@H]2C(=O)N3[C@@H]2SC(C)(C)[C@@H]3C(=O)O)c2ccccc2)C(=O)C1=O [Piperacillin] |  |  | in vivo MRT_(hr)_Human [3]: 1.125 h; in vivo Vd_(L/kg)_Human [2, 7]: 0.270 L/kg
CCN(CC)CCNC(=O)c1ccc(N)cc1 [Procainamide] |  |  | fp_Human [1]: 0.840
O=C(c1ccc(OCCN2CCCCC2)cc1)c1c(-c2ccc(O)cc2)sc2cc(O)ccc12 [Raloxifene] |  |  | in vivo MRT_(hr)_Human [3]: 41.837 h; in vivo Vd_(L/kg)_Human [2, 7]: 36.900 L/kg
Cc1nc2n(c(=O)c1CCN1CCC(c3noc4cc(F)ccc34)CC1)CCCC2 [Risperidone] |  |  | fp_Human ([1]; free fraction in human plasma, median if multiple values reported, Reference of Table S1): 0.100
CCCc1nn(C)c2c(=O)[nH]c(-c3cc(S(=O)(=O)N4CCN(C)CC4)ccc3OCC)nc12 [Sildenafil] |  |  | in vivo MRT_(hr)_Human [3]: 2.564 h; in vivo Vd_(L/kg)_Human [2, 7]: 1.400 L/kg
Cc1cc(NS(=O)(=O)c2ccc(N)cc2)no1 [Sulfamethoxazole] |  |  | in vivo CL_(L/hr/kg)_Human ([4]; human, intravenous, median if multiple values reported, Reference of Table S1): 0.020 L/h/kg
CCCCNC(=O)NS(=O)(=O)c1ccc(C)cc1 [Tolbutamide] |  |  | in vivo MRT_(hr)_Human [3]: 9.524 h; in vivo Vd_(L/kg)_Human [2, 7]: 0.120 L/kg
CCN(C(C)=O)c1cccc(-c2ccnc3c(C#N)cnn23)c1 [Zaleplon] |  |  | in vivo MRT_(hr)_Human [3]: 1.354 h; in vivo Vd_(L/kg)_Human ([2]; in vivo, iv): 1.300 L/kg
